A word on the MIC: it is the lowest concentration that inhibits growth of the organism.

Values after ≈ are worked out from the molar mass of the structure shown.

The subject of one data set is C. glabrata MTCC 3019. As to the kind of experiment: MIC, microtiter plate dilution assay. It counts as cell-based. Set-up: key to MIC value: R = resistant. The note with it: 5 × 10^5 CFU/ml, 37°C, OD 600 nm after 48 h. The protocol: (§1) The antimicrobial activity of HPLC purified compounds was determined against various test strains including S. aureus MTCC 1430, Vibrio cholera MTCC 3904, Bacillus subtilis MTCC 121, Listeria monocytogenes MTCC 839, C. albicans MTCC 183, C. albicans MTCC 1637, C. albicans MTCC 227, C. tropicalis MTCC 184, C. glabrata MTCC 3019, and C. inconspicua MTCC 1074. Antimicrobial activity was also tested against clinical Candida strains and phytopathogenic fungi viz. Fusarium moniliforme MTCC 158, Alternaria brassicicola MTCC 2102 and Colletotrichum acutatum MTCC 1037. Bacterial and Candida test strains were grown in NB and yeast malt broth (YMB), respectively. Fungal test strains were grown in potato dextrose broth (PDB). Minimum inhibitory concentrations (MICs) of purified compounds were evaluated against test organisms by using a microtiter plate dilution assay. Mid-log-phase test strains (5 × 10^5 CFU/ml) were incubated in a 96-well plate with different concentrations of the lipopeptides for 24–48 h at 37°C (final volume of 200 μl). OD was measured at 600 nm after 24 and 48 h for bacteria and yeast, respectively, using an ELISA microplate reader (Thermo Scientific, United States). MIC against phytopathogenic fungi was determined using the 96-well microtiter plate method ([Sharma et al., 2020]).

Another data set concerns C. haemulonii MTCC 2766. Briefly: MIC, microtiter plate dilution assay. In kind it is cell-based. Set-up: key to MIC value: R = resistant. The note with it: 5 × 10^5 CFU/ml, 37°C, OD 600 nm after 48 h. The procedure:
as §1

The next data set concerns C. tropicalis MTCC 184. Briefly: MIC, microtiter plate dilution assay. In kind it is cell-based. The note with it: 5 × 10^5 CFU/ml, 37°C, OD 600 nm after 48 h. Set-up: key to MIC value: R = resistant. The procedure:
as §1

The test system of a further data set is C. inconspicua MTCC 1074. Briefly: MIC, microtiter plate dilution assay. In kind it is cell-based. Particulars: Pichia inconspicua, MTCC1074, YMB, 5 × 10^5 CFU/ml, 37°C, OD 600 nm after 48 h. The procedure: as §1
The test system of another data set is C. albicans MTCC 183. Briefly: MIC, microtiter plate dilution assay. In kind it is cell-based, Candida albicans. Particulars: Candida albicans, MTCC183, YMB, 5 × 10^5 CFU/ml, 37°C, OD 600 nm after 48 h. The procedure:
as §1

A further data set deals with C. albicans MTCC 1637. As to the kind of experiment: MIC, microtiter plate dilution assay. More on the design: key to MIC value: R = resistant. In kind it is cell-based, Candida albicans. Particulars: 5 × 10^5 CFU/ml, 37°C, OD 600 nm after 48 h. The procedure:
as §1

The subject of the next data set is C. albicans MTCC 227. As to the kind of experiment: MIC, microtiter plate dilution assay. It counts as cell-based, Candida albicans. More on the design: key to MIC value: R = resistant. The note with it: 5 × 10^5 CFU/ml, 37°C, OD 600 nm after 48 h. The protocol: as §1
A further data set relates to C. albicans 400054. Briefly: MIC, microtiter plate dilution assay, clinical strain. Set-up: key to MIC value: R = resistant. Particulars: YMB, 37°C, OD 600 nm after 48 h. It counts as cell-based, Candida albicans. The procedure: (§2) Brevibacillus sp. strains GI-9 and SKDU10 were known to produce class IId bacteriocins identified as laterosporulins a ([Singh et al., 2012]; [Baindara et al., 2016]). Both strains were grown on nutrient agar (NA, Himedia, India). All test strains used in this study were obtained from Microbial Type Culture Collection and Gene bank (MTCC), Chandigarh, India. Clinical Candida strains were obtained from the National Culture Collection of Pathogenic Fungi (NCCPF), PGIMER, Chandigarh, India, and all strains were grown on recommended media.
as §1

Another data set concerns C. auris 470126. The data set is described as above. In kind it is cell-based. More on the design: key to MIC value: R = resistant. The note with it: YMB, 37°C, OD 600 nm after 48 h. The procedure: as §2, §1
In the next data set the test system is C. haemulonii 470125. The description is as above. In kind it is cell-based. More on the design: key to MIC value: R = resistant. The note with it: YMB, 37°C, OD 600 nm after 48 h. The procedure:
as §2, §1

For another data set, the system named is C. kefyr 410004. The description is as above. The note with it: YMB, 37°C, OD 600 nm after 48 h. Set-up: key to MIC value: R = resistant. It counts as cell-based. The procedure: as §2, §1
A further data set has as its system C. tropicalis 420024. The data set is described as above. It counts as cell-based. Set-up: key to MIC value: R = resistant. The note with it: YMB, 37°C, OD 600 nm after 48 h. The procedure:
as §2, §1

The subject of the next data set is C. krusei 440009. The data set is described as above. In kind it is cell-based. The note with it: Pichia kudriavzevii, YMB, 37°C, OD 600 nm after 48 h. The protocol: as §2, §1
For another data set, the system named is C. parapsilosis 450030. Described as above. It counts as cell-based. Particulars: Lodderomyces parapsilosis, YMB, 37°C, OD 600 nm after 48 h. The procedure: as §2, §1
A further data set has as its system C. rugosa 470141. The description is as above. The note with it: Diutina rugosa, YMB, 37°C, OD 600 nm after 48 h. It counts as cell-based. The procedure:
as §2, §1

The subject of a further data set is C. acutatum MTCC1037. As to the kind of experiment: MIC against phytopathogenic fungi, 96-well microtiter plate method. It counts as cell-based, Colletotrichum acutatum. Set-up: key: R = resistant. Particulars: PDB. The procedure:
as §1

For a further data set, the system named is F. moniliforme MTCC 158. Described as above. Particulars: Fusarium verticillioides, MTCC158, PDB. In kind it is cell-based, Fusarium moniliforme. The procedure:
as §1

Data set [1] relates to A. brassicicola MTCC 2102. The description is as above. In kind it is cell-based, Alternaria brassicicola. Set-up: key to MIC value: R = resistant. The protocol: as §1
The subject of data set [2] is Vigna radiata (Moong) seeds. As to the kind of experiment: Seed germination-based phytotoxicity assay. Particulars: Vigna radiata seeds soaked in 0.1% solution (positive control), up to 3 days. The protocol:
For hemolysis assay rabbit erythrocytes were treated with different concentrations of purified active antimicrobial compounds ranging from 250 to 750 μg/ml and incubated at 37°C for 24 h in a 5% CO2 incubator. The release of hemoglobin was monitored by measuring the absorbance at 540 nm in a microplate reader. PBS and 0.1% Triton X-100 were used as controls for 0 and 100% hemolysis, respectively ([Singh et al., 2021]). For phytotoxicity assay, sterilized Vigna radiata (Moong) seeds were treated with different concentrations of purified antimicrobial compounds (250–750 μg/ml). Seeds soaked in water and 0.1% mercuric chloride were used as negative and positive control, respectively. Seeds germination was observed up to 3 days of incubation.

As to `C[C@@H]1[C@H](O)[C@@H](C)/C=C/C=C/C=C/C=C/C=C/C=C/C=C/[C@H](O[C@@H]2O[C@H](C)[C@@H](O)[C@H](N)[C@@H]2O)C[C@@H]2O[C@](O)(C[C@@H](O)C[C@@H](O)[C@H](O)CC[C@@H](O)C[C@@H](O)CC(=O)O[C@H]1C)C[C@H](O)[C@H]2C(=O)O` [Amphotericin B], the minimum inhibitory concentration (MIC) was determined as 25 µg/mL (≈ 27.1 µM) with C. glabrata MTCC 3019 (Nakaseomyces glabratus, MTCC3019, YMB); 100 µg/mL (≈ 108 µM) in the data set with C. haemulonii MTCC 2766 (Candidozyma haemuli, MTCC2766, YMB); 35 µg/mL (≈ 37.9 µM) against C. tropicalis MTCC 184 (Candida tropicalis, MTCC184, YMB); 10 µg/mL (≈ 10.8 µM) against C. inconspicua MTCC 1074; 5 µg/mL (≈ 5.41 µM) in the data set on C. albicans MTCC 183; 5 µg/mL (≈ 5.41 µM) against C. albicans MTCC 1637 (Candida albicans, MTCC1637, YMB). In addition, the MIC against C. albicans MTCC 227 (Candida albicans, MTCC227, YMB) was determined as 5 µg/mL (≈ 5.41 µM); against C. albicans 400054 (Candida albicans), 5 µg/mL (≈ 5.41 µM); against C. auris 470126 (Candidozyma auris) it was 5 µg/mL (≈ 5.41 µM); with C. haemulonii 470125 (Candidozyma haemuli), 50 µg/mL (≈ 54.1 µM); in the data set on C. kefyr 410004 (Kluyveromyces marxianus) it was 50 µg/mL (≈ 54.1 µM); against C. tropicalis 420024 (Candida tropicalis), 50 µg/mL (≈ 54.1 µM). Moreover, the MIC against C. krusei 440009 is 5 µg/mL (≈ 5.41 µM); against C. parapsilosis 450030, 50 µg/mL (≈ 54.1 µM); in the data set with C. rugosa 470141 it was 5 µg/mL (≈ 5.41 µM); with F. moniliforme MTCC 158 it was 50 µg/mL (≈ 54.1 µM); in [1] (Alternaria brassicicola, MTCC2102, PDB) it was 50 µg/mL (≈ 54.1 µM). The MIC value entry against C. acutatum MTCC1037 is recorded as “R”.

Regarding `OC(Cn1cncn1)(Cn1cncn1)c1ccc(F)cc1F` [Fluconazole], the MIC value entry against C. glabrata MTCC 3019 (YMB), against C. haemulonii MTCC 2766 (YMB), against C. tropicalis MTCC 184 (YMB), in the data set on C. albicans MTCC 1637 (YMB), with C. albicans MTCC 227 (YMB) and in the data set on C. albicans 400054 was “R” each time. In addition, the MIC value result (in the data set on C. auris 470126; in the data set on C. haemulonii 470125; against C. kefyr 410004; against C. tropicalis 420024; against C. acutatum MTCC1037; in data set [1] (PDB)) was “R” throughout. Also, the MIC with C. inconspicua MTCC 1074 came to 50 µg/mL (≈ 163 µM); with C. krusei 440009 it was 1 µg/mL (≈ 3.27 µM); against C. parapsilosis 450030, 10 µg/mL (≈ 32.7 µM); against C. rugosa 470141, 5 µg/mL (≈ 16.3 µM); against F. moniliforme MTCC 158 it was 10 µg/mL (≈ 32.7 µM).

With `[Cl][Hg][Cl]` [mercuric chloride], the Seed germination result in data set [2] is given as “No germination”.
